Paper PMC6767919 (European journal of pharmacology, 2019)
Marks after values point to notes of the source that are not given here.

Columns and labels:
[1] = molecular target: T1, human 5-HT2C–INI (wild-type, WT) receptor (Homo sapiens, UniProt P28335); format: cell-based
T1 sequence (P28335 33-458): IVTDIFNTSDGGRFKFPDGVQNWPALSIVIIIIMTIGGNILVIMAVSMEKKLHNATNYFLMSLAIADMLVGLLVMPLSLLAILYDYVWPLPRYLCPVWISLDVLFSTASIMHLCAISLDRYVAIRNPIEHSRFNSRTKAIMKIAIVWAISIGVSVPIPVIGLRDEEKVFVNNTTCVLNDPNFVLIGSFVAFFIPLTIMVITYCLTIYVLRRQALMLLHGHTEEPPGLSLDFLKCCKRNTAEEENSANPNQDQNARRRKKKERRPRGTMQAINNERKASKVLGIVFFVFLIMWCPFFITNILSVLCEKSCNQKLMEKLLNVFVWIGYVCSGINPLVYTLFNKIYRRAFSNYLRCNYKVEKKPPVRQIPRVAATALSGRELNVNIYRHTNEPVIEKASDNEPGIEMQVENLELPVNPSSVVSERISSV

5-HT2C receptor [2] = molecular target: T2, 5-HT2C receptor (Homo sapiens, UniProt P28335); experiment: Inverse agonist reduction of basal 5-HT2C-mediated IP production; format: cell-based; conditions: CHO-K1 cells; basal 5-HT2C-mediated IP production after 20 h of vehicle; n = 3
T2 sequence (P28335 33-458): T1 sequence (P28335 33-458)

5-HT2C-INI receptor = molecular target: T3, 5-HT2C-INI receptor (Homo sapiens, UniProt P28335); experiment: DiscoverX PathHunter β-arrestin recruitment to the 5-HT2C receptor; format: cell-based; conditions: for Emax (% 5-HT), β-arrestin recruitment / pEC50, β-arrestin recruitment: U2OS cells stably expressing 5-HT2C-INI, agonist 2 h, n = 3
T3 sequence (P28335 33-458): T1 sequence (P28335 33-458)

5-HT2C receptor [3] = molecular target: T2, 5-HT2C receptor; experiment: Inverse agonist sensitization of 5-HT2C receptor IP signaling; format: cell-based; conditions: pretreatment for 8 h or less; data not shown
5-HT2C receptor [4] = molecular target: T2, 5-HT2C receptor; conditions: ref Schlag et al., 2004; cited from earlier work
[5] = Solubility in the desensitization assay; format: physicochemical
5-HT2C receptor (WT) = molecular target: T4, 5-HT2C receptor (WT) (Homo sapiens, UniProt P28335); format: cell-based
T4 sequence (P28335 33-458): T1 sequence (P28335 33-458)

PKC = conditions: read-out: Ki for PKC; ref Herbert et al., 1990; Absolinova et al., 2010; cited from earlier work
5-HT2C receptor [6] = molecular target: T2, 5-HT2C receptor; experiment: Effect of PKC inhibition on 5-HT-induced 5-HT2C receptor desensitization; conditions: 10 μM chelerythrine; data not shown

Row | SMILES | Emax (% 5-HT), inositol phosphate production [1] | agonist efficacy class relative to 5-HT, IP production [1] | pEC50, inositol phosphate production [1] | Imax (% decrease from basal), inositol phosphate reduction (5-HT2C receptor [2]) [% decrease from basal] | Emax (% 5-HT), β-arrestin recruitment (5-HT2C-INI receptor) | also measured
1 | COc1cc(CC(C)N)c(OC)cc1I (racemic) [DOI, (±) 2,5-dimethoxy-4-iodoamphetamine] | 82 ± 4 % 5-HT | full agonists | 8.32 ± 0.10 | – | – | –
2 | CN(C)[C@@H]1Cc2ccccc2[C@@H](C2CCCCC2)C1 (relative stereo) [CAT, (2S,4R)-(−)-trans-4-cyclohexyl-N,N-dimethyl-1,2,3,4-tetrahydronaphthalen-2-amine] | – | – | – | 26 ± 4 | – | pIC50, inositol phosphate reduction (5-HT2C receptor [2]): 7.17 ± 0.21
3 | CN(C)[C@@H]1Cc2ccccc2[C@@H](c2cccc(Br)c2)C1 (relative stereo) [MBP, (2S,4R)-(−)-trans-4-(3’[meta]-bromophenyl)-N,N-dimethyl-1,2,3,4-tetrahydronaphthalen-2-amine] | 73 ± 4^a % 5-HT | partial agonists | 7.76 ± 0.04 | – | 7 ± 4^a % 5-HT | effect on 5-HT2C receptor β-arrestin recruitment (in words) (5-HT2C-INI receptor): negligible effects; pEC50, β-arrestin recruitment (5-HT2C-INI receptor): 6.84 ± 0.10^a
4 | CN(C)[C@@H]1Cc2ccccc2[C@@H](c2cccc(C(F)(F)F)c2)C1 (relative stereo) [MFP, (2S,4R)-(−)-trans-4-(3’[meta]-trifluoromethylphenyl)-N,N-dimethyl-1,2,3,4-tetrahydronaphthalene-2-amine] | – | – | – | 25 ± 3 | – | pIC50, inositol phosphate reduction (5-HT2C receptor [2]): 7.62 ± 0.10
5 | CN(C)[C@@H]1Cc2ccccc2[C@@H](c2ccccc2)C1 (relative stereo) [PAT, (2S,4R)-(−)-trans-4-phenyl-N,N-dimethyl-1,2,3,4-tetrahydronaphthalen-2-amine] | 50 ± 1^a % 5-HT | – | – | – | – | –
6 | C[C@H](N)Cn1ccc2cc(F)c(Cl)cc21 [Ro 60–0175] | 99 ± 6 % 5-HT | full agonists | 8.30 ± 0.05 | – | 92 ± 4 % 5-HT | pEC50, β-arrestin recruitment (5-HT2C-INI receptor): 7.86 ± 0.11
7 | Cn1ccc2cc3c(cc21)CCN3C(=O)Nc1cccnc1 [SB 206553] | – | – | – | 32 ± 5 | – | sensitization of the 5-HT2C receptor after short pretreatment (5-HT2C receptor [3]): does not sensitize; sensitization of 5-HT2C receptors after 30 min pretreatment (5-HT2C receptor [4]): insufficient to sensitize
8 | O=C1Nc2cc(Cl)c(Cl)cc2N2CCNCC12 (stereo not drawn) [WAY-161503] | 100 ± 2 % 5-HT | full agonists | 8.07 ± 0.08 | – | – | –
9 | O=C1CCc2ccc(OCCCCN3CCN(c4cccc(Cl)c4Cl)CC3)cc2N1 [aripiprazole] | 40 ± 4^a % 5-HT | – | – | – | 8 ± 1^a % 5-HT | effect on 5-HT2C receptor β-arrestin recruitment (in words) (5-HT2C-INI receptor): negligible effects; solubility in the desensitization assay [5]: low solubility; desensitization of 5-HT2C-PLC signaling (in words) (5-HT2C receptor (WT)): did not desensitize
10 | COc1ccc2c(c[n+](C)c3c4cc5c(cc4ccc23)OCO5)c1OC [chelerythrine] | – | – | – | – | – | Ki (PKC): 700 nM; effect of chelerythrine on 5-HT-induced IP production in non-desensitized cells (5-HT2C receptor [6]): no effect
11 | C[C@H]1CNCCc2ccc(Cl)cc21 [lorcaserin] | 100 ± 1 % 5-HT | – | – | – | 118 ± 5^a % 5-HT | –
12 | Clc1cccc(N2CCNCC2)c1 [mCPP, 1-(3-chlorophenyl)piperazine] | 88 ± 10 % 5-HT | – | – | – | – | –
13 | CN1C[C@@H](NS(=O)(=O)N(C)C)C[C@@H]2c3cccc4c3c(cn4C)C[C@H]21 [mesulergine] | – | – | – | 17 ± 2 | – | –
